Test results from patent publication US9290536B2, “C4 monomethyl triterpenoid derivatives and methods of use thereof” (Reata Pharmaceuticals, Inc., priority 2011, dated 2016).

Test system: IFNγ-induced NO production in RAW264.7
Assay: Suppression of IFNγ-induced NO production in RAW264.7 mouse macrophages (Griess reagent, normalized to WST-1 cell viability)
Format: cell-based
Conditions: RAW264.7 cells, 2 h pre-treatment with drug (0-200 nM), then IFNγ for 24 h
Protocol: Nitric Oxide Production and Cell Viability. […] On the next day, cells were pre-treated with DMSO or drug (0-200 nM dose range) for 2 hours, and then treated with recombinant mouse IFNγ (R&D Systems) for 24 hours. Nitric Oxide concentration in media was determined using the Griess reagent system (Promega). Cell viability was determined using WST-1 reagent (Roche). IC50 values were determined based on the suppression of IFNγ induced Nitric Oxide production normalized to cell viability.

Compound	IC50 [nM]
C[C@@H]1C(=O)C(C#N)=C[C@]2(C)[C@H]3CC(=O)[C@@H]4[C@@H]5CC(C)(C)CC[C@]5(C(=O)NO)CC[C@@]4(C)[C@]3(C)CC[C@@H]12 [TX63814]	19
C[C@@H]1C(=O)C(C#N)=C[C@]2(C)C3=CC(=O)[C@@H]4[C@@H]5CC(C)(C)CC[C@]5(c5nnco5)CC[C@@]4(C)[C@]3(C)CC[C@@H]12 [TX63789]	0.6
COC(=O)N[C@]12CCC(C)(C)C[C@H]1[C@H]1C(=O)C=C3[C@@]4(C)C=C(C#N)C(=O)[C@@H](C)[C@@H]4CC[C@@]3(C)[C@]1(C)CC2 [TX63693]	1.4
C[C@@H]1C(=O)C(C#N)=C[C@]2(C)C3=CC(=O)[C@@H]4[C@@H]5CC(C)(C)CC[C@]5(CCC(=O)N5CCOCC5)CC[C@@]4(C)[C@]3(C)CC[C@@H]12 [TX63888]	0.3
Cc1noc([C@]23CCC(C)(C)C[C@H]2[C@H]2C(=O)C=C4[C@@]5(C)C=C(C#N)C(=O)[C@@H](C)[C@@H]5CC[C@@]4(C)[C@]2(C)CC3)n1 [TX63787]	0.8
CC(=O)O[C@]12CCC(C)(C)C[C@H]1[C@H]1C(=O)C=C3[C@@]4(C)C=C(C#N)C(=O)[C@@H](C)[C@@H]4CC[C@@]3(C)[C@]1(C)CC2 [TX63928]	0.6
CCCCNC(=O)[C@]12CCC(C)(C)C[C@H]1[C@H]1C(=O)C[C@@H]3[C@@]4(C)C=C(C#N)C(=O)[C@@H](C)[C@@H]4CC[C@@]3(C)[C@]1(C)CC2 [TX63843]	10.9
C[C@@H]1C(=O)C(C#N)=C[C@]2(C)[C@H]3CC(=O)[C@@H]4[C@@H]5CC(C)(C)CC[C@]5(C(=O)O)CC[C@@]4(C)[C@]3(C)CC[C@@H]12 [TX63797]	21
C[C@@H]1C(=O)C(C#N)=C[C@]2(C)C3=CC(=O)[C@@H]4[C@@H]5CC(C)(C)CC[C@]5(NC(=O)C5CCC5)CC[C@@]4(C)[C@]3(C)CC[C@@H]12 [TX63863]	1.8
COC(=O)[C@]12CCC(C)(C)C[C@H]1[C@@]1(O)C(=O)C=C3[C@@]4(C)C=C(C#N)C(=O)[C@@H](C)[C@@H]4CC[C@@]3(C)[C@]1(C)CC2 [TX63870]	1.1
CONC(=O)[C@]12CCC(C)(C)C[C@H]1[C@H]1C(=O)C[C@@H]3[C@@]4(C)C=C(C#N)C(=O)[C@@H](C)[C@@H]4CC[C@@]3(C)[C@]1(C)CC2 [TX63815]	9.6
C[C@@H]1C(=O)C(C#N)=C[C@]2(C)C3=CC(=O)[C@@H]4[C@@H]5CC(C)(C)CC[C@]5(CCC(=O)N5CCCC5)CC[C@@]4(C)[C@]3(C)CC[C@@H]12 [TX63893]	0.5
C[C@@H]1C(=O)C(C#N)=C[C@]2(C)C3=CC(=O)[C@@H]4[C@@H]5CC(C)(C)CC[C@]5(N)CC[C@@]4(C)[C@]3(C)CC[C@@H]12 [TX63620]	1.2
CSCOC[C@]12CCC(C)(C)C[C@H]1[C@H]1C(=O)C[C@@H]3[C@@]4(C)C=C(C#N)C(=O)[C@@H](C)[C@@H]4CC[C@@]3(C)[C@]1(C)CC2 [TX63859]	14.6
C[C@@H]1C(=O)C(C#N)=C[C@]2(C)C3=CC(=O)[C@@H]4[C@@H]5CC(C)(C)CC[C@]5(C(N)=O)CC[C@@]4(C)[C@]3(C)CC[C@@H]12 [TX63557]	2.2
C[C@@H]1C(=O)C(C#N)=C[C@]2(C)C3=CC(=O)[C@]4(O)[C@@H]5CC(C)(C)CC[C@]5(CO)CC[C@@]4(C)[C@]3(C)CC[C@@H]12 [TX63908]	0.6
CCCCCCOC(=O)[C@]12CCC(C)(C)C[C@H]1[C@H]1C(=O)C=C3[C@@]4(C)C=C(C#N)C(=O)[C@@H](C)[C@@H]4CC[C@@]3(C)[C@]1(C)CC2 [TX63821]	53
C[C@@H]1C(=O)C(C#N)=C[C@]2(C)C3=CC(=O)[C@@H]4[C@@H]5CC(C)(C)CC[C@]5(NC(=O)C5CC5)CC[C@@]4(C)[C@]3(C)CC[C@@H]12 [TX63866]	1.4
C[C@@H]1C(=O)C(C#N)=C[C@]2(C)C3=CC(=O)[C@@H]4[C@@H]5CC(C)(C)CC[C@]5(C(=O)N5CCOCC5)CC[C@@]4(C)[C@]3(C)CC[C@@H]12 [TX63881]	0.9
COC[C@]12CCC(C)(C)C[C@H]1[C@H]1C(=O)C[C@@H]3[C@@]4(C)C=C(C#N)C(=O)[C@@H](C)[C@@H]4CC[C@@]3(C)[C@]1(C)CC2 [TX63858]	7.2
CCNC(=O)[C@]12CCC(C)(C)C[C@H]1[C@H]1C(=O)C=C3[C@@]4(C)C=C(C#N)C(=O)C(C)=C4CC[C@@]3(C)[C@]1(C)CC2 [TX63597]	> 25
CCCCCCC(=O)N[C@]12CCC(C)(C)C[C@H]1[C@H]1C(=O)C=C3[C@@]4(C)C=C(C#N)C(=O)[C@@H](C)[C@@H]4CC[C@@]3(C)[C@]1(C)CC2 [TX63865]	9.4
C[C@@H]1C(=O)C(C#N)=C[C@]2(C)[C@H]3CC(=O)[C@@H]4[C@@H]5CC(C)(C)CC[C@]5(C(N)=O)CC[C@@]4(C)[C@]3(C)CC[C@@H]12 [TX63816]	10.2

Compound	IC50 [nM]
COC(=O)[C@]12CCC(C)(C)C[C@H]1[C@H]1C(=O)C=C3[C@@]4(C)C=C(C(N)=O)C(=O)[C@@H](C)[C@@H]4CC[C@@]3(C)[C@]1(C)CC2 [TX63831]	21
CC(=O)NNC(=O)CC[C@]12CCC(C)(C)C[C@H]1[C@H]1C(=O)C=C3[C@@]4(C)C=C(C#N)C(=O)[C@@H](C)[C@@H]4CC[C@@]3(C)[C@]1(C)CC2 [TX63915]	4
CCNC(=O)[C@]12CCC(C)(C)C[C@H]1[C@H]1C(=O)C[C@@H]3[C@@]4(C)C=C(C#N)C(=O)[C@@H](C)[C@@H]4CC[C@@]3(C)[C@]1(C)CC2 [TX63680]	7
CNC(=O)[C@]12CCC(C)(C)C[C@H]1[C@H]1C(=O)C=C3[C@@]4(C)C=C(C#N)C(=O)[C@@H](C)[C@@H]4CC[C@@]3(C)[C@]1(C)CC2 [TX63824]	1
C[C@@H]1C(=O)C(C#N)=C[C@]2(C)C3=CC(=O)[C@@H]4[C@@H]5CC(C)(C)CC[C@]5(C(=O)N(C)C)CC[C@@]4(C)[C@]3(C)CC[C@@H]12 [TX63878]	1.4
CCOC(=O)[C@]12CCC(C)(C)C[C@H]1[C@H]1C(=O)C[C@@H]3[C@@]4(C)C=C(C#N)C(=O)[C@@H](C)[C@@H]4CC[C@@]3(C)[C@]1(C)CC2 [TX63842]	6.1
C[C@@H]1C(=O)C(C#N)=C[C@]2(C)[C@H]3CC(=O)[C@@H]4[C@@H]5CC(C)(C)CC[C@]5(C(=O)n5ccnc5)CC[C@@]4(C)[C@]3(C)CC[C@@H]12 [TX63811]	0.3
C[C@@H]1C(=O)C(C#N)=C[C@]2(C)C3=CC(=O)[C@@H]4[C@@H]5CC(C)(C)CC[C@]5(NS(C)(=O)=O)CC[C@@]4(C)[C@]3(C)CC[C@@H]12 [TX63621]	0.8
C[C@@H]1C(=O)C(C#N)=C[C@]2(C)C3=CC(=O)[C@@H]4[C@@H]5CC(C)(C)CC[C@]5(NC(=O)CC(F)(F)F)CC[C@@]4(C)[C@]3(C)CC[C@@H]12 [TX63799]	1.8
C[C@@H]1C(=O)C(C#N)=C[C@]2(C)C3=CC(=O)[C@@H]4[C@@H]5CC(C)(C)CC[C@]5(CCC(=O)N5CCC(F)(F)C5)CC[C@@]4(C)[C@]3(C)CC[C@@H]12 [TX63890]	0.8
C=C1C(O)=C(C#N)C[C@]2(C)C3=CC(=O)[C@@H]4[C@@H]5CC(C)(C)CC[C@]5(C(=O)OC)CC[C@@]4(C)[C@]3(C)CC[C@@H]12 [TX63910]	304
C[C@@H]1C(=O)C(C#N)=C[C@]2(C)C3=CC(=O)[C@@H]4[C@@H]5CC(C)(C)CC[C@]5(CCC(=O)N5CCC5)CC[C@@]4(C)[C@]3(C)CC[C@@H]12 [TX63889]	0.4
C[C@@H]1C(=O)C(C#N)=C[C@]2(C)[C@H]3CC(=O)[C@@H]4[C@@H]5CC(C)(C)CC[C@]5(COC(=O)C(F)(F)F)CC[C@@]4(C)[C@]3(C)CC[C@@H]12 [TX63841]	4.5
C[C@@H]1C(=O)C(C#N)=C[C@]2(C)C3=CC(=O)[C@@H]4[C@@H]5CC(C)(C)CC[C@]5(NC(N)=O)CC[C@@]4(C)[C@]3(C)CC[C@@H]12 [TX63862]	28
C[C@@H]1C(=O)C(C#N)=C[C@]2(C)[C@H]3CC(=O)[C@@H]4[C@@H]5CC(C)(C)CC[C@]5(C(=O)N5CCOCC5)CC[C@@]4(C)[C@]3(C)CC[C@@H]12 [TX63812]	10.1
COC(=O)[C@]12CCC(C)(C)C[C@H]1[C@H]1C(=O)C=C3[C@@]4(C)C=C(C#N)C(=O)C[C@@H]4CC[C@@]3(C)[C@]1(C)CC2 [TX63614]	11.7
CC(=O)N[C@]12CCC(C)(C)C[C@H]1[C@H]1C(=O)C=C3[C@@]4(C)C=C(C#N)C(=O)[C@@H](C)[C@@H]4CC[C@@]3(C)[C@]1(C)CC2 [TX63622]	3.8
CCNC(=O)CC[C@]12CCC(C)(C)C[C@H]1[C@H]1C(=O)C=C3[C@@]4(C)C=C(C#N)C(=O)[C@@H](C)[C@@H]4CC[C@@]3(C)[C@]1(C)CC2 [TX63892]	0.3
C[C@@H]1C(=O)C(C#N)=C[C@]2(C)C3=CC(=O)[C@@H]4[C@@H]5CC(C)(C)CC[C@]5(C(=O)NC5COC5)CC[C@@]4(C)[C@]3(C)CC[C@@H]12 [TX63825]	2
C[C@@H]1C(=O)C(C#N)=C[C@]2(C)C3=CC(=O)[C@@H]4[C@@H]5CC(C)(C)CC[C@]5(C#N)CC[C@@]4(C)[C@]3(C)CC[C@@H]12 [TX63558]	0.6
C[C@@H]1C(=O)C(C#N)=C[C@]2(C)C3=CC(=O)[C@@H]4[C@@H]5CC(C)(C)CC[C@]5(CCC(=O)NCC(F)(F)F)CC[C@@]4(C)[C@]3(C)CC[C@@H]12 [TX63887]	0.8
C[C@@H]1C(=O)C(C#N)=C[C@]2(C)C3=CC(=O)[C@@H]4[C@@H]5CC(C)(C)CC[C@]5(O)CC[C@@]4(C)[C@]3(C)CC[C@@H]12 [TX63925]	0.4
CC(=O)OC[C@]12CCC(C)(C)C[C@H]1[C@H]1C(=O)C=C3[C@@]4(C)C=C(C#N)C(=O)[C@@H](C)[C@@H]4CC[C@@]3(C)[C@]1(C)CC2 [TX63546]	1
